Results taken from patent US20260262643A1, “HERBICIDAL BENZOXAZINES” (FMC CORPORATION, priority 2022, published 2026).

Experiments:
barnyardgrass [1] = test: Test C preemergence; type: in vivo, Echinochloa crusgalli; conditions: 0 to 100 scale (0 no effect, 100 complete control)
Outline: (§1)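 Greenhouse herbicide screen, 10-day duration. Test chemicals in solvent/surfactant blend were sprayed onto soil at sowing (pre) or onto 2–10 cm seedlings at one to two leaves (post); injury scored visually against controls, 0 no effect to 100 complete control.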

blackgrass [2] = test: Test C preemergence; type: in vivo, Alopecurus myosuroides; conditions: 0 to 100 scale (0 no effect, 100 complete control)
Outline: as §1

corn [3] = test: Test C preemergence; type: in vivo, Zea mays; conditions: 0 to 100 scale (0 no effect, 100 complete control)
Outline: as §1

green foxtail [4] = test: Test C preemergence; type: in vivo, Setaria viridis; conditions: 0 to 100 scale (0 no effect, 100 complete control)
Outline: as §1

kochia [5] = test: Test C preemergence; type: in vivo, Bassia scoparia; conditions: 0 to 100 scale (0 no effect, 100 complete control)
Outline: as §1

oat, wild [6] = test: Test C preemergence; type: in vivo, Avena fatua; conditions: 0 to 100 scale (0 no effect, 100 complete control)
Outline: as §1

pigweed, palmer [7] = test: Test C preemergence; type: in vivo, Amaranthus palmeri; conditions: 0 to 100 scale (0 no effect, 100 complete control)
Outline: as §1

ragweed [8] = test: Test C preemergence; type: in vivo, Ambrosia artemisiifolia; conditions: 0 to 100 scale (0 no effect, 100 complete control)
Outline: as §1

ryegrass, Italian [9] = test: Test C preemergence; type: in vivo, Lolium multiflorum; conditions: 0 to 100 scale (0 no effect, 100 complete control)
Outline: as §1

soybean [10] = test: Test C preemergence; type: in vivo, Glycine max; conditions: 0 to 100 scale (0 no effect, 100 complete control)
Outline: as §1

wheat [11] = test: Test C preemergence; type: in vivo, Triticum aestivum; conditions: 0 to 100 scale (0 no effect, 100 complete control)
Outline: as §1

barnyardgrass [12] = test: Test C postemergence; type: in vivo, Echinochloa crusgalli; conditions: 10 days
Outline: as §1

blackgrass [13] = test: Test C postemergence; type: in vivo, Alopecurus myosuroides; conditions: 10 days
Outline: as §1

corn [14] = test: Test C postemergence; type: in vivo, Zea mays; conditions: 10 days
Outline: as §1

green foxtail [15] = test: Test C postemergence; type: in vivo, Setaria viridis; conditions: 10 days
Outline: as §1

kochia [16] = test: Test C postemergence; type: in vivo, Bassia scoparia; conditions: 10 days
Outline: as §1

oat, wild [17] = test: Test C postemergence; type: in vivo, Avena fatua; conditions: 10 days
Outline: as §1

pigweed, palmer [18] = test: Test C postemergence; type: in vivo, Amaranthus palmeri; conditions: 10 days
Outline: as §1

ragweed [19] = test: Test C postemergence; type: in vivo, Ambrosia artemisiifolia; conditions: 10 days
Outline: as §1

ryegrass, Italian [20] = test: Test C postemergence; type: in vivo, Lolium multiflorum; conditions: 10 days
Outline: as §1

soybean [21] = test: Test C postemergence; type: in vivo, Glycine max; conditions: 10 days
Outline: as §1

wheat [22] = test: Test C postemergence; type: in vivo, Triticum aestivum; conditions: 10 days
Outline: as §1

galium = test: Test C postemergence; type: in vivo, Galium aparine; conditions: 125 g ai/ha, postemergence, 10 days; 0 to 100 scale, 0 no effect, 100 complete control
Outline: as §1

horseweed = test: Test C postemergence; type: in vivo, Erigeron canadensis; conditions: 10 days
Outline: as §1

barnyardgrass [23] = test: Test D flooded paddy test; type: in vivo, Echinochloa crus-galli; conditions: 250 g ai/ha, applied to paddy water, visual rating after 13 to 14 days, scale 0 to 100 (0 no effect, 100 complete control)
Outline: (§2)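 Compounds go straight into paddy water over 2-leaf plants in pots flooded to 3 cm. Greenhouse holding lasts 13 to 14 days. Injury is scored by eye against controls from 0 (none) to 100 (complete control).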

ducksalad = test: Test D flooded paddy test; type: in vivo, Heteranthera limosa; conditions: 250 g ai/ha, applied to paddy water, visual rating after 13 to 14 days, scale 0 to 100 (0 no effect, 100 complete control)
Outline: as §2

rice = test: Test D flooded paddy test; type: in vivo, Oryza sativa; conditions: 250 g ai/ha, applied to paddy water, visual rating after 13 to 14 days, scale 0 to 100 (0 no effect, 100 complete control)
Outline: as §2

sedge, umbrella = test: Test D flooded paddy test; type: in vivo, Cyperus difformis; conditions: 250 g ai/ha, applied to paddy water, visual rating after 13 to 14 days, scale 0 to 100 (0 no effect, 100 complete control)
Outline: as §2

[24] = Preemergence, 500 g ai/ha, visual rating after 10 days
[25] = Test C, preemergence, 125 g ai/ha
[26] = 125 g ai/ha, postemergence, 0 to 100 scale, 0 no effect, 100 complete control
[27] = Postemergence, 500 g ai/ha, visual 0 to 100 scale (0 no effect, 100 complete control)

## CC(C)c1ncn(-c2ccc(SC(F)(F)F)c(C(=O)N3C[C@H](C)Oc4c(Cl)cccc43)c2)n1 [Compound 249]
Barnyardgrass [1]; [24]
  Plant response rating, Barnyardgrass: 20
Barnyardgrass [1]; [25]
  Barnyardgrass plant response rating: 20
Blackgrass [2]; [24]
  Plant response rating, Blackgrass: 60
Blackgrass [2]; [25]
  Blackgrass plant response rating: 20
Corn [3]; [24]
  Plant response rating, Corn: 0
Corn [3]; [25]
  Corn plant response rating: 0
Green foxtail [4]; [24]
  Plant response rating, Foxtail, Green: 90
Green foxtail [4]; [25]
  Foxtail, Green plant response rating: 90
Kochia [5]; [24]
  Plant response rating, Kochia: 0
Kochia [5]; [25]
  Kochia plant response rating: 0
oat, wild [6]; [24]
  Plant response rating, Oat, Wild: 0
oat, wild [6]; [25]
  Oat, Wild plant response rating: 0
pigweed, palmer [7]; [24]
  Plant response rating, Pigweed, Palmer: 30
pigweed, palmer [7]; [25]
  Pigweed, Palmer plant response rating: 30
Ragweed [8]; [24]
  Plant response rating, Ragweed: 0
Ragweed [8]; [25]
  Ragweed plant response rating: 0
ryegrass, Italian [9]; [24]
  Plant response rating, Ryegrass, Italian: 60
ryegrass, Italian [9]; [25]
  Ryegrass, Italian plant response rating: 40
Soybean [10]; [24]
  Plant response rating, Soybean: 20
Soybean [10]; [25]
  Soybean plant response rating: 0
Wheat [11]; [24]
  Plant response rating, Wheat: 0
Wheat [11]; [25]
  Wheat plant response rating: 0
Barnyardgrass [12]; [26]
  Plant response rating, Barnyardgrass: 10
Barnyardgrass [12]; [27]
  Plant response rating, Barnyardgrass: 10
Blackgrass [13]; [26]
  Plant response rating, Blackgrass: 0
Blackgrass [13]; [27]
  Plant response rating, Blackgrass: 0
Corn [14]; [26]
  Plant response rating, Corn: 0
Corn [14]; [27]
  Plant response rating, Corn: 10
Green foxtail [15]; [26]
  Plant response rating, Foxtail, Green: 30
Green foxtail [15]; [27]
  Plant response rating, Foxtail, Green: 30
Kochia [16]; [26]
  Plant response rating, Kochia: 50
Kochia [16]; [27]
  Plant response rating, Kochia: 80
oat, wild [17]; [26]
  Plant response rating, Oat, Wild: 0
oat, wild [17]; [27]
  Plant response rating, Oat, Wild: 0
pigweed, palmer [18]; [26]
  Plant response rating, Pigweed, Palmer: 40
pigweed, palmer [18]; [27]
  Plant response rating, Pigweed, Palmer: 70
Ragweed [19]; [26]
  Plant response rating, Ragweed: 0
Ragweed [19]; [27]
  Plant response rating, Ragweed: 0
ryegrass, Italian [20]; [26]
  Plant response rating, Ryegrass, Italian: 0
ryegrass, Italian [20]; [27]
  Plant response rating, Ryegrass, Italian: 0
Soybean [21]; [26]
  Plant response rating, Soybean: 100
Soybean [21]; [27]
  Plant response rating, Soybean: 100
Wheat [22]; [26]
  Plant response rating, Wheat: 10
Wheat [22]; [27]
  Plant response rating, Wheat: 10
galium
  Plant response rating, Galium: 90
horseweed; [26]
  Plant response rating, Horseweed: 0
horseweed; [27]
  Plant response rating, Horseweed: 0
Barnyardgrass [23]
  Plant response rating, Barnyardgrass (Flood): 0
ducksalad
  Plant response rating, Ducksalad (Flood): 0
rice
  Plant response rating, Rice (Flood): 0
sedge, umbrella
  Plant response rating, Sedge, Umbrella (Flood): 0
